Experimental data published in patent US20020111274A1, “1-alkyl-3-[1-(substituted phenyl) benzotriazol-6-yl] uracils” (BASF Aktiengesellschaft, priority 2000, published 2002).

How the values were obtained:
[1] = system: AMBEL Ragweed, Common; assay: Postemergence herbicidal evaluation, AMBEL; assay type: in vivo, Ambrosia artemisifolia, L.; conditions: postemergence spray, rated about two-three weeks after treatment
Summary of the method: (§1)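 Plants are raised for roughly two weeks, then treated postemergence with compound dispersed in acetone/water (80/20) plus 1.0% seed oil adjuvant, at rates of about 0.006 kg to 0.400 kg per hectare. After greenhouse care, damage is scored two to three weeks later.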

[2] = system: ORYSAT Rice, Tebonnet; assay: Preemergence herbicidal evaluation, ORYSAT; assay type: in vivo, Oryza sativa, (L.); conditions: preemergence
Summary of the method: (§2)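 Seeds mixed with potting soil were planted on about one inch of soil in cups, then sprayed with the test compound in aqueous acetone at roughly 0.013 to 0.800 kg per hectare. Plants were kept under standard greenhouse care and injury was rated four to five weeks after treatment.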

[3] = system: CHEAL Lambsquarters, Common; assay: Preemergence herbicidal evaluation, CHEAL; assay type: in vivo, Chenopodium album, L.; conditions: preemergence
Summary of the method: as §2

[4] = system: CHEAL Lambsquarters, Common; assay: Postemergence herbicidal evaluation, CHEAL; assay type: in vivo, Chenopodium album, L.; conditions: postemergence spray, rated about two-three weeks after treatment
Summary of the method: as §1

[5] = system: SETVI Foxtail, Green; assay: Postemergence herbicidal evaluation, SETVI; assay type: in vivo, Setaria viridis, (L.) Beau; conditions: postemergence spray, rated about two-three weeks after treatment
Summary of the method: as §1

[6] = system: TRZAWR Wheat, Winter, cv Riband; assay: Preemergence herbicidal evaluation, TRZAWR; assay type: in vivo, Triticum aestivum; conditions: preemergence
Summary of the method: as §2

[7] = system: ZEAMX Corn, Field; assay: Preemergence herbicidal evaluation, ZEAMX; assay type: in vivo, Zea mays, L. (Sammel-Bezeichnung); conditions: preemergence
Summary of the method: as §2

[8] = system: GLXMAW Soybean, Williams; assay: Postemergence herbicidal evaluation, GLXMAW; assay type: in vivo, Glycine max, (L.) Merr. cv Williams; conditions: postemergence spray, rated about two-three weeks after treatment
Summary of the method: as §1

[9] = system: ABUTH Velvetleaf; assay: Preemergence herbicidal evaluation, ABUTH; assay type: in vivo, Abutilon theophrasti, Medic.; conditions: preemergence
Summary of the method: as §2

[10] = system: ABUTH Velvetleaf; assay: Postemergence herbicidal evaluation, ABUTH; assay type: in vivo, Abutilon theophrasti, Medic.; conditions: postemergence spray, rated about two-three weeks after treatment
Summary of the method: as §1

[11] = system: ZEAMX Corn, Field; assay: Postemergence herbicidal evaluation, ZEAMX; assay type: in vivo, Zea mays, L. (Sammel-Bezeichnung); conditions: postemergence spray, rated about two-three weeks after treatment
Summary of the method: as §1

[12] = system: CASOB Sicklepod; assay: Preemergence herbicidal evaluation, CASOB; assay type: in vivo, Cassia obtusifolia, L.; conditions: preemergence
Summary of the method: as §2

[13] = system: SETVI Foxtail, Green; assay: Preemergence herbicidal evaluation, SETVI; assay type: in vivo, Setaria viridis, (L.) Beau; conditions: preemergence
Summary of the method: as §2

[14] = system: GLXMAW Soybean, Williams; assay: Preemergence herbicidal evaluation, GLXMAW; assay type: in vivo, Glycine max, (L.) Merr. cv Williams; conditions: preemergence
Summary of the method: as §2

[15] = system: ECHOG Barnyardgrass; assay: Postemergence herbicidal evaluation, ECHOG; assay type: in vivo, Echinochloa crus-galli, (L.) Beau; conditions: postemergence spray, rated about two-three weeks after treatment
Summary of the method: as §1

[16] = system: TRZAWR Wheat, Winter, cv Riband; assay: Postemergence herbicidal evaluation, TRZAWR; assay type: in vivo, Triticum aestivum; conditions: postemergence spray, rated about two-three weeks after treatment
Summary of the method: as §1

[17] = system: GALAP Galium; assay: Postemergence herbicidal evaluation, GALAP; assay type: in vivo, Galium aparine; conditions: postemergence spray, rated about two-three weeks after treatment
Summary of the method: as §1

[18] = system: IPOHE Morningglory, Ivyleaf; assay: Preemergence herbicidal evaluation, IPOHE; assay type: in vivo, Ipomoea hederacea, (L.) Jacq.; conditions: preemergence
Summary of the method: as §2

[19] = system: IPOHE Morningglory, Ivyleaf; assay: Postemergence herbicidal evaluation, IPOHE; assay type: in vivo, Ipomoea hederacea, (L.) Jacq.; conditions: postemergence spray, rated about two-three weeks after treatment
Summary of the method: as §1

[20] = system: CASOB Sicklepod; assay: Postemergence herbicidal evaluation, CASOB; assay type: in vivo, Cassia obtusifolia, L.; conditions: postemergence spray, rated about two-three weeks after treatment
Summary of the method: as §1

[21] = system: GALAP Galium; assay: Preemergence herbicidal evaluation, GALAP; assay type: in vivo, Galium aparine; conditions: preemergence
Summary of the method: as §2

[22] = system: ORYSAT Rice, Tebonnet; assay: Postemergence herbicidal evaluation, ORYSAT; assay type: in vivo, Oryza sativa, (L.); conditions: postemergence spray, rated about two-three weeks after treatment
Summary of the method: as §1

[23] = system: AMBEL Ragweed, Common; assay: Preemergence herbicidal evaluation, AMBEL; assay type: in vivo, Ambrosia artemisifolia, L.; conditions: preemergence
Summary of the method: as §2

[24] = system: ECHOG Barnyardgrass; assay: Preemergence herbicidal evaluation, ECHOG; assay type: in vivo, Echinochloa crus-galli, (L.) Beau; conditions: preemergence
Summary of the method: as §2

COC(=O)COc1ccc(C)cc1-n1nnc2cc(F)c(-n3c(=O)cc(C(F)(F)F)n(C)c3=O)cc21 [Example 34]
Postemergence herbicidal rating AMBEL ([1]; 0.008 kg/ha): 0.0 | Postemergence herbicidal rating AMBEL ([1]; 0.016 kg/ha): 3.0 | Postemergence herbicidal rating AMBEL ([1]; 0.032 kg/ha): 9.0 | Postemergence herbicidal rating AMBEL ([1]; 0.062 kg/ha): 9.0 | ORYSAT herbicidal rating ([2]; rate 0.016 kg/ha): 1.0 | ORYSAT herbicidal rating ([2]; rate 0.032 kg/ha): 2.5 | ORYSAT herbicidal rating ([2]; rate 0.062 kg/ha): 3.0 | ORYSAT herbicidal rating ([2]; rate 0.125 kg/ha): 5.0 | CHEAL herbicidal rating ([3]; rate 0.016 kg/ha): 9.0 | CHEAL herbicidal rating ([3]; rate 0.032 kg/ha): 9.0 | CHEAL herbicidal rating ([3]; rate 0.062 kg/ha): 9.0 | CHEAL herbicidal rating ([3]; rate 0.125 kg/ha): 9.0 | Postemergence herbicidal rating CHEAL ([4]; 0.008 kg/ha): 2.0 | Postemergence herbicidal rating CHEAL ([4]; 0.016 kg/ha): 3.0 | Postemergence herbicidal rating CHEAL ([4]; 0.032 kg/ha): 3.0 | Postemergence herbicidal rating CHEAL ([4]; 0.062 kg/ha): 9.0 | Postemergence herbicidal rating SETVI ([5]; 0.008 kg/ha): 9.0 | Postemergence herbicidal rating SETVI ([5]; 0.016 kg/ha): 9.0 | Postemergence herbicidal rating SETVI ([5]; 0.032 kg/ha): 9.0 | Postemergence herbicidal rating SETVI ([5]; 0.062 kg/ha): 9.0 | TRZAWR herbicidal rating ([6]; rate 0.016 kg/ha): 1.0 | TRZAWR herbicidal rating ([6]; rate 0.032 kg/ha): 1.0 | TRZAWR herbicidal rating ([6]; rate 0.062 kg/ha): 1.0 | TRZAWR herbicidal rating ([6]; rate 0.125 kg/ha): 3.0 | ZEAMX herbicidal rating ([7]; rate 0.016 kg/ha): 0.0 | ZEAMX herbicidal rating ([7]; rate 0.032 kg/ha): 0.5 | ZEAMX herbicidal rating ([7]; rate 0.062 kg/ha): 3.5 | ZEAMX herbicidal rating ([7]; rate 0.125 kg/ha): 4.0 | Postemergence herbicidal rating GLXMAW ([8]; 0.008 kg/ha): 5.0 | Postemergence herbicidal rating GLXMAW ([8]; 0.016 kg/ha): 6.5 | Postemergence herbicidal rating GLXMAW ([8]; 0.032 kg/ha): 7.0 | Postemergence herbicidal rating GLXMAW ([8]; 0.062 kg/ha): 7.0 | ABUTH herbicidal rating ([9]; rate 0.016 kg/ha): 9.0 | ABUTH herbicidal rating ([9]; rate 0.032 kg/ha): 9.0 | ABUTH herbicidal rating ([9]; rate 0.062 kg/ha): 9.0 | ABUTH herbicidal rating ([9]; rate 0.125 kg/ha): 9.0 | Postemergence herbicidal rating ABUTH ([10]; 0.008 kg/ha): 9.0 | Postemergence herbicidal rating ABUTH ([10]; 0.016 kg/ha): 9.0 | Postemergence herbicidal rating ABUTH ([10]; 0.032 kg/ha): 9.0 | Postemergence herbicidal rating ABUTH ([10]; 0.062 kg/ha): 9.0 | Postemergence herbicidal rating ZEAMX ([11]; 0.008 kg/ha): 7.0 | Postemergence herbicidal rating ZEAMX ([11]; 0.016 kg/ha): 7.5 | Postemergence herbicidal rating ZEAMX ([11]; 0.032 kg/ha): 8.5 | Postemergence herbicidal rating ZEAMX ([11]; 0.062 kg/ha): 9.0 | CASOB herbicidal rating ([12]; rate 0.032 kg/ha): 2.0 | CASOB herbicidal rating ([12]; rate 0.062 kg/ha): 2.5 | CASOB herbicidal rating ([12]; rate 0.125 kg/ha): 6.0 | SETVI herbicidal rating ([13]; rate 0.016 kg/ha): 7.0 | SETVI herbicidal rating ([13]; rate 0.032 kg/ha): 6.0 | SETVI herbicidal rating ([13]; rate 0.062 kg/ha): 9.0 | SETVI herbicidal rating ([13]; rate 0.125 kg/ha): 9.0 | GLXMAW herbicidal rating ([14]; rate 0.016 kg/ha): 1.0 | GLXMAW herbicidal rating ([14]; rate 0.032 kg/ha): 1.0 | GLXMAW herbicidal rating ([14]; rate 0.062 kg/ha): 1.5 | GLXMAW herbicidal rating ([14]; rate 0.125 kg/ha): 2.0 | Postemergence herbicidal rating ECHCG ([15]; 0.008 kg/ha): 7.0 | Postemergence herbicidal rating ECHCG ([15]; 0.016 kg/ha): 9.0 | Postemergence herbicidal rating ECHCG ([15]; 0.032 kg/ha): 9.0 | Postemergence herbicidal rating ECHCG ([15]; 0.062 kg/ha): 9.0 | Postemergence herbicidal rating TRZAWR ([16]; 0.008 kg/ha): 5.0 | Postemergence herbicidal rating TRZAWR ([16]; 0.016 kg/ha): 5.0 | Postemergence herbicidal rating TRZAWR ([16]; 0.032 kg/ha): 7.0 | Postemergence herbicidal rating TRZAWR ([16]; 0.062 kg/ha): 8.0 | Postemergence herbicidal rating GALAP ([17]; 0.008 kg/ha): 0.0 | Postemergence herbicidal rating GALAP ([17]; 0.016 kg/ha): 3.0 | Postemergence herbicidal rating GALAP ([17]; 0.032 kg/ha): 4.0 | Postemergence herbicidal rating GALAP ([17]; 0.062 kg/ha): 4.0 | IPOHE herbicidal rating ([18]; rate 0.032 kg/ha): 9.0 | IPOHE herbicidal rating ([18]; rate 0.062 kg/ha): 5.0 | IPOHE herbicidal rating ([18]; rate 0.125 kg/ha): 9.0 | Postemergence herbicidal rating IPOHE ([19]; 0.008 kg/ha): 9.0 | Postemergence herbicidal rating IPOHE ([19]; 0.016 kg/ha): 9.0 | Postemergence herbicidal rating IPOHE ([19]; 0.032 kg/ha): 9.0 | Postemergence herbicidal rating IPOHE ([19]; 0.062 kg/ha): 9.0 | Postemergence herbicidal rating CASOB ([20]; 0.008 kg/ha): 0.0 | Postemergence herbicidal rating CASOB ([20]; 0.016 kg/ha): 0.0 | Postemergence herbicidal rating CASOB ([20]; 0.032 kg/ha): 1.0 | Postemergence herbicidal rating CASOB ([20]; 0.062 kg/ha): 5.0 | GALAP herbicidal rating ([21]; rate 0.016 kg/ha): 0.0 | GALAP herbicidal rating ([21]; rate 0.032 kg/ha): 0.0 | GALAP herbicidal rating ([21]; rate 0.062 kg/ha): 0.0 | GALAP herbicidal rating ([21]; rate 0.125 kg/ha): 7.0 | Postemergence herbicidal rating ORYSAT ([22]; 0.008 kg/ha): 3.0 | Postemergence herbicidal rating ORYSAT ([22]; 0.016 kg/ha): 4.0 | Postemergence herbicidal rating ORYSAT ([22]; 0.032 kg/ha): 6.5 | Postemergence herbicidal rating ORYSAT ([22]; 0.062 kg/ha): 7.5 | AMBEL herbicidal rating ([23]; rate 0.016 kg/ha): 1.0 | AMBEL herbicidal rating ([23]; rate 0.032 kg/ha): 5.0 | AMBEL herbicidal rating ([23]; rate 0.062 kg/ha): 6.0 | AMBEL herbicidal rating ([23]; rate 0.125 kg/ha): 8.0 | ECHCG herbicidal rating ([24]; rate 0.016 kg/ha): 4.0 | ECHCG herbicidal rating ([24]; rate 0.032 kg/ha): 2.0 | ECHCG herbicidal rating ([24]; rate 0.062 kg/ha): 5.0 | ECHCG herbicidal rating ([24]; rate 0.125 kg/ha): 7.5
